US11040009B2, “Expansile crosslinked polymersome for ph-sensitive delivery of anticancer drugs” (Mayo Foundation for Medical Education and Research, priority 2016, dated 2021)

Tests used:
HeLa cells [1] = assay: Cellular uptake by DOX fluorescence imaging; type: cell-based; settings: 10 μg/mL
Procedure: HeLa cells were co-cultured with DOX-loaded polymersomes in DMEM at a drug concentration of 10 μg/mL, as described in Example 6. At time points of 1, 2, 4 hours, the culture medium was removed and cells were washed with PBS three times and then fixed in 4% paraformaldehyde. After 10 min, paraformaldehyde was removed and cells were washed three times with PBS then stained with DAPI (4′,6-diamidino-2-phenylindole) for 2 min. DOX fluorescence from polymersomes and DAPI fluorescence from cellular nuclei were visualized and photographed by Axiovert 25 Zeiss light microscope. DOX fluorescence from polymersomes appeared red, and DAPI fluorescence from cellular nuclei appeared blue.
Cellular uptake of DOX-PS particles were investigated through imaging of DOX fluorescence after 1, 3 and 5 hours of co-culture with HeLa cells. […] The first, second, and third rows correspond to incubation times of 1, 3, and 5 hours respectively.

HeLa cells [2] = assay: Cell viability by MTS assay; type: cell-based; settings: 10 μg/mL, FIG. 10
Procedure: HeLa cells were used as a model cancer cell for cytotoxicity evaluation. Trypsinized HeLa cells were seeded onto 48-well tissue culture polystyrene (TCPS) plates at 10,000 cells cm^−2. Cells were then cultured in Dulbecco's Modified Eagle's Medium (DMEM) supplemented with FBS, 100 U/mL penicillin, 2 mM L-glutamine, and 0.1 mg/mL streptomycin for 24 h to allow adhesion. To evaluate the cytotoxicity of PEG-Fu-DiTT polymersomes, empty samples without loaded drugs were prepared, dialyzed against phosphate-buffered saline (PBS) for 2 days, and lyophilized for 3 days. The dried polymersomes were then incubated with HeLa cells at concentrations of 0.1, 0.5, 1.0 and 2.0 mg/mL for 3 days. Wells seeded with the same HeLa cell density but without added polymersomes were used as positive controls. The relative cell densities in each group were determined by MTS assay (CellTiter 96 Aqueous One Solution, Promega, Madison, Wis.) by comparing the optical density (OD) value to that of positive controls (which were set at 100% cell density). To evaluate the cancer killing effect, similar cell culture procedures were used by adding DOX-loaded polymersomes or free drugs at concentrations of 0.01, 0.1, 0.5, 1, 5, 10 and 50 μg/mL.

## COc1cccc2c1C(=O)c1c(O)c3c(c(O)c1C2=O)C[C@@](O)(C(=O)CO)C[C@@H]3O[C@H]1C[C@H](N)[C@H](O)[C@H](C)O1 [unencapsulated DOX, doxorubicin]
HeLa cells [1]; 1 hour
  DOX fluorescence in cells: red fluorescence
HeLa cells [1]; 3 hour
  DOX fluorescence in cells: slight increase in intensity
HeLa cells [1]; 5 hour
  DOX fluorescence in cells: slight increase in intensity
HeLa cells [2]
  effect on cancer cell viability: inhibition effect
